According to patent publication US6211375A, “Pyridonecarboxylic acid derivatives or salts thereof and antibacterial agents containing the same as the active ingredient” (Wakunaga Pharmaceutical Co., Ltd., priority 1996, dated 2001):
≈ marks a conversion by molar mass, not a printed value. Read-outs that look alike come from different tables or passages of the source.

How the values were obtained:
P. aeruginosa IFO3445 = assay: Antibacterial Activity, minimum growth inhibitory concentration (MIC), P. aeruginosa IFO3445; assay type: cell-based; settings: Pseudomonas aeruginosa, standard method of Japan Chemotherapy Society
Protocol: (§1) Minimum growth inhibitory concentration (MIC, μg/ml) was evaluated in accordance with the standard method of Japan Chemotherapy Society (Chemotherapy 29(1), 76, 1981). It should be noted that tosufloxacin was also evaluated for its minimum growth inhibitory concentration for the purpose of comparison.

S.aureus 209P = assay: Antibacterial Activity, minimum growth inhibitory concentration (MIC), S.aureus 209P; assay type: cell-based; settings: Staphylococcus aureus, standard method of Japan Chemotherapy Society
Protocol: as §1

ears = assay: Phototoxicity Test (abnormality in the ears of mice after UVA irradiation); assay type: in vivo, Female ICR mice; settings: 40 mg/kg i.v., UVA 320 to 400 nm, 4 hours; for ear abnormality, point: 0 = no abnormality, 1 = very slight erythema, 2 = well defined erythema, 3 = moderate to severe erythema or edema
Protocol: Female ICR mice (5 to 6 week old) were intravenously administered with the test compound (40 mg/kg/10 ml), and irradiated with UVA (320 to 400 nm, 1.8 mW/cm^2 /sec) for 4 hours. Abnormality in the ears was monitored at 0 hour immediately after the irradiation and after 24 hours. The ear abnormality was evaluated by the following criteria: no abnormality (0 point), very slight erythema (1 point), well defined erythema (2 points), moderate to severe erythema or edema formation (3 points). Tosufloxacin which is a conventional known antibacterial agent was also tested in a similar way for the purpose of comparison.

[1] = Absorption and Excretion (urine and bile recovery rates after oral administration); assay type: in vivo, Male SD rats; settings: rat, 20 mg/kg, rats, oral 20 mg/10 ml/kg
Protocol: A compound of the present invention was measured for its urine and bile recovery rates in rats after its oral administration to evaluate absorption and excretion of the compounds.
Male SD rats of 6 week old which had been fasted overnight were administered orally with 0.5% methylcellulose suspension of the test compounds (20 mg/10 ml/kg). The urine collection was continued until 24 hours after the administration. The concentration of the test compound in the urine was measured by paper disc method using Bacillus subtilis ATCC6633 for the test bacterium to determine the urine recovery rate.
Into choledoch duct of male SD rats of 6 week old which had been fasted overnight was inserted a polyethylene tube under etherization. After arousing, the rats were forcedly administered orally with the test compounds as in the case of the above (1), and bile collection was continued until 24 hours after the administration. The bile with no further treatment and the bile alkaline hydrolyzed (with 0.1N NaOH, 37° C., 1 hour) were measured for their concentration of the test compound by the same procedure as in the case of the above (1) to determine the bile recovery rate.

| SMILES | MIC (P. aeruginosa IFO3445) | MIC (S.aureus 209P) | ear abnormality, occurrence (ears; 0 hour after irradiation) | ear abnormality, point (ears; 0 hour after irradiation) | ear abnormality, occurrence (ears; 24 hours after irradiation) | ear abnormality, point (ears; 24 hours after irradiation) | dose excreted at 24 h ([1]; bile, 0-24 hours, bile after alkaline hydrolysis (0.1N NaOH, 37° C., 1 hour), read-out: Recovery rate (24 hours), Bile*) | dose excreted at 24 h ([1]; bile, 0-24 hours, bile with no further treatment, read-out: Recovery rate (24 hours), Bile) | dose excreted at 24 h ([1]; urine and bile, 24 hours, total recovery rate, read-out: Recovery rate (24 hours), Total recovery rate) | dose excreted at 24 h ([1]; urine, 0-24 hours, paper disc method with Bacillus subtilis ATCC6633, read-out: Recovery rate (24 hours), Urine) |
| --- | --- | --- | --- | --- | --- | --- | --- | --- | --- | --- |
| Cc1c(N2CC(N)C2)c(F)cc2c(=O)c(C(=O)O)cn(-c3cc(N)c(F)cc3F)c12 [Compound of Ex. 1, 7-(3-aminoazetidin-1-yl)-1-(3-amino-4,6-difluorophenyl)-6-fluoro-8-methyl-1,4-dihydro-4-oxoguinoline-3-carboxylic Acid] | 0.05 µg/mL (≈ 0.12 µM) | 0.006 µg/mL (≈ 0.0143 µM) | 0/3 | 0 point | 0/3 | 0 point |  |  |  |  |
| CNC1CN(c2c(F)cc3c(=O)c(C(=O)O)cn(-c4cc(N)c(F)cc4F)c3c2C)C1 [Compound of Ex. 2, 1-(3-amino-4,6-difluorophenyl)-6-fluoro-8-methyl-7-(3-methylaminoazetidin-1-yl)-1,4-dihydro-4-oxoguinoline-3-carboxylic Acid] | 0.1 µg/mL (≈ 0.231 µM) | 0.006 µg/mL (≈ 0.0139 µM) | 0/3 | 0 point | 0/3 | 0 point |  |  |  |  |
| Cc1c(N2CC(C)(N)C2)c(F)cc2c(=O)c(C(=O)O)cn(-c3cc(N)c(F)cc3F)c12 [Compound of Ex. 3, 7-(3-amino-3-methylazetidin-1-yl)-1-(3-amino-4,6-difluorophenyl)-6-fluoro-8-methyl-1,4-dihydro-4-oxoguinoline-3-carboxylic Acid] | 0.1 µg/mL (≈ 0.231 µM) | 0.006 µg/mL (≈ 0.0139 µM) | 0/3 | 0 point | 0/3 | 0 point | 26.7% | 10.4% | 30.6% | 3.9% |
| Cc1cc(F)c(N)cc1-n1cc(C(=O)O)c(=O)c2cc(F)c(N3CC(N)C3)c(C)c21 [Compound of Ex. 4, 7-(3-aminoazetidin-1-yl)-1-(3-amino-4-fluoro-6-methylphenyl)-6-fluoro-8-methyl-1,4-dihydro-4-oxoguinoline-3-carboxylic Acid] | 0.1 µg/mL (≈ 0.241 µM) | 0.003 µg/mL (≈ 0.00724 µM) | 0/3 | 0 point | 0/3 | 0 point |  |  |  |  |
| Cc1cc(F)c(N)cc1-n1cc(C(=O)O)c(=O)c2cc(F)c(N3CC(C)(N)C3)c(C)c21 [Compound of Ex. 5, 7-(3-amino-3-methylazetidin-l-yl)-1-(3-amino-4-fluoro-6-methylphenyl)-6-fluoro-8-methyl-1,4-dihydro-4-oxoguinoline-3-carboxylic Acid] | 0.2 µg/mL (≈ 0.467 µM) | 0.013 µg/mL (≈ 0.0303 µM) | 0/3 | 0 point | 0/3 | 0 point |  |  |  |  |
| CNC1CN(c2c(F)cc3c(=O)c(C(=O)O)cn(-c4cc(N)c(F)cc4C)c3c2C)C1 [Compound of Ex. 6, 1-(3-amino-4-fluoro-6-methylphenyl)-6-fluoro-8-methyl-7-(3-methylaminoazetidin-1-yl)-1,4-dihydro-4-oxoguinoline-3-carboxylic Acid] | 0.2 µg/mL (≈ 0.467 µM) | 0.013 µg/mL (≈ 0.0303 µM) | 0/3 | 0 point | 0/3 | 0 point |  |  |  |  |
| Cc1c(N2CC(N)C2)c(F)cc2c(=O)c(C(=O)O)cn(-c3cc(N)c(F)cc3Cl)c12 [Compound of Ex. 7, 7-(3-aminoazetidin-1-yl)-1-(3-amino-6-chloro-4-fluorophenyl)-6-fluoro-8-methyl-1,4-dihydro-4-oxoguinoline-3-carboxylic Acid] | 0.1 µg/mL (≈ 0.23 µM) | 0.013 µg/mL (≈ 0.0299 µM) | 0/3 | 0 point | 0/3 | 0 point |  |  |  |  |
| Cc1c(N2CC(O)C2)c(F)cc2c(=O)c(C(=O)O)cn(-c3cc(N)c(F)cc3F)c12 [Compound of Ex. 8, 1-(3-amino-4,6-difluorophenyl)-6-fluoro-7-(3-hydroxyazetidin-1-yl)-8-methyl-4-oxo-1,4-dihydroquinoline-3-carboxylic Acid] | 0.2 µg/mL (≈ 0.477 µM) | 0.006 µg/mL (≈ 0.0143 µM) | 0/3 | 0 point | 0/3 | 0 point |  |  |  |  |
| Cc1cc(F)c(N)cc1-n1cc(C(=O)O)c(=O)c2cc(F)c(N3CC(O)C3)c(C)c21 [Compound of Ex. 9, 1-(3-amino-4-fluoro-6-methylphenyl)-6-fluoro-7-(3-hydroxyazetidin-1-yl)-8-methyl-4-oxo-1,4-dihydroquinoline-3-carboxylic Acid] | 0.2 µg/mL (≈ 0.481 µM) | 0.013 µg/mL (≈ 0.0313 µM) | 0/3 | 0 point | 0/3 | 0 point |  |  |  |  |
| Cc1c(F)c(N2CC(N)C2)c(C)c2c1c(=O)c(C(=O)O)cn2-c1cc(N)c(F)cc1F [Compound of Ex. 10, 7-(3-aminoazetidin-1-yl)-1-(3-amino-4,6-difluorophenyl)-6-fluoro-5,8-dimethyl-4-oxo-1,4-dihydroquinoline-3-carboxylic Acid] | 0.1 µg/mL (≈ 0.231 µM) | 0.003 µg/mL (≈ 0.00694 µM) | 0/3 | 0 point | 0/3 | 0 point |  |  |  |  |
| NC1CCN(c2nc3c(cc2F)c(=O)c(C(=O)O)cn3-c2ccc(F)cc2F)C1 (stereo not shown) [Tosufloxacin, reference compound] | 0.39 µg/mL (≈ 0.965 µM) | 0.05 µg/mL (≈ 0.124 µM) | 4/5 | 1.8 point | 4/5 | 0.8 point |  |  |  |  |
